Here are results for seven molecules from patent US8802634B2, “CD40-L Inhibitory Peptides” (Phylogica Limited, priority 2008, dated 2014).

Where two headings read alike, the source gives them in different places. Where a SMILES comes first, the peptide text is derived from it. Bridges are numbered along the chain shown (N, C = ends). Roman numbers before positions name the chains, in order. [ ]: non-standard residue; d: D form. AEEA = NCCOCCOCC(=O)O Bounds are passed on as bounds.

The target of assay [1] is CD40L-induced CD86 expression on primary B-cells (Homo sapiens, UniProt P29965). Description: Inhibition of CD40L-induced CD86 expression on primary B-cells (FACS). Format: cell-based. To be noted: for inhibition of CD40L-induced CD86 expression (qualitative): figure legends; for EC50: PEGylated monomeric peptide, read-out: EC50 PEGylated peptide. As for the experimental part:
In one example, the ability of a peptide, analog or derivative of the invention to inhibit or reduce or delay expression of CD86 on primary B-cells was determined in the presence and absence of the peptides, analogs and derivatives of the invention. In particular, CD86 expression was determined by FACS.
In these assays, CD40L induced CD86 expression in a concentration-dependent manner in the absence of a peptidyl inhibitor of the present invention with an EC50 value of about 9 nM (FIG. 6d, 6e). As a control in these assays, LPS-induced expression of CD86 mediated by the Toll-like receptors TLR 2/4, and TNFα-induced cytoxicity, were also assayed to exclude effects mediated by ligands other than CD40L.
In a similar series of bioassays, dimeric forms of the CD40L peptide inhibitors were also tested for their ability to inhibit or reduce CD40L-induced expression of CD86 on primary B-cells.

The next assay deals with T1, CD40L/CD40-Fc (Homo sapiens, UniProt P29965).
T1 sequence (P29965 113-261 limits assumed): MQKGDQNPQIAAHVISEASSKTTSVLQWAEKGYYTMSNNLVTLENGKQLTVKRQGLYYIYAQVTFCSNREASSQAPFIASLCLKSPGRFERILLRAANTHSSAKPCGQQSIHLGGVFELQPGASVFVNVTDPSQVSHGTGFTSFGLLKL
Description: Chemiluminescent proximity assay (Alphascreen) of CD40L-CD40 interaction. Format: binding. Here is the method: In one example, the Alphascreen assay (PerkinElmer) was employed according to the manufacturer's instructions.
Homodimers and heterodimers were also assayed by chemiluminescent proximity assay for their ability to inhibit CD40L-CD40 interaction.

Chain of CD40L-induced CD86 expression on primary B-cells (P29965 whole entry): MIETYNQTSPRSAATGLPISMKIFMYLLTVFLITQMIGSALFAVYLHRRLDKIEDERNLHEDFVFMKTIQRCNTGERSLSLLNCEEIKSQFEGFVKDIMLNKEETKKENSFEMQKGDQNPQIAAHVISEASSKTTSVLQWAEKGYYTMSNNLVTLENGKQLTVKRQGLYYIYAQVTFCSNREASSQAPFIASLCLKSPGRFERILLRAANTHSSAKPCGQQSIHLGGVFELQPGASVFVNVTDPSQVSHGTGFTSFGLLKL
Chain of CD40L-induced CD86 expression on primary B-cells (P25942 21-277 partner): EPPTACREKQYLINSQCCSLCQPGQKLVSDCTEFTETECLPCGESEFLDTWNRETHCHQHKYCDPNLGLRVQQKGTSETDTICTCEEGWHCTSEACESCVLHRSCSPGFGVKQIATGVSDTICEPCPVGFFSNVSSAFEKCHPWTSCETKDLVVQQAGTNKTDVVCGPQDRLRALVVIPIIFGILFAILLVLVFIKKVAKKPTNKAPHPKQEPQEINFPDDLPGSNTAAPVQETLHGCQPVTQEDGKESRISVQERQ

As usually defined, the IC50 is the concentration needed to halve the response being measured. Lower therefore signals greater potency in that assay. For `CC[C@H](C)[C@H](NC(=O)[C@H](CO)NC(=O)[C@H](Cc1c[nH]c2ccccc12)NC(=O)[C@H](CCC(N)=O)NC(=O)[C@@H](NC(=O)[C@@H]1CCCN1C(=O)[C@H](Cc1ccccc1)NC(=O)[C@H](Cc1ccccc1)NC(=O)[C@H](Cc1c[nH]c2ccccc12)NC(=O)CNC(=O)[C@H](Cc1ccc(O)cc1)NC(=O)[C@H](CCCCN)NC(=O)[C@H](CC(C)C)NC(=O)[C@@H](NC(=O)[C@H](Cc1c[nH]cn1)NC(=O)[C@H](CO)NC(=O)[C@H](CCCNC(=N)N)NC(=O)[C@H](Cc1ccc(O)cc1)NC(=O)[C@@H]1CCCN1C(=O)[C@@H](NC(=O)[C@H](Cc1ccccc1)NC(=O)[C@@H]1CCCN1C(=O)[C@@H](N)CC(C)C)C(C)C)C(C)C)C(C)C)C(=O)N[C@@H](Cc1ccccc1)C(=O)N[C@@H](C)C(=O)N[C@H](C(=O)N[C@@H](CC(C)C)C(=O)N1CCC[C@H]1C(=O)N[C@@H](Cc1ccccc1)C(=O)N[C@@H](CCC(N)=O)C(=O)N[C@@H](Cc1ccc(O)cc1)C(=O)N[C@@H](CC(C)C)C(=O)N[C@@H](Cc1c[nH]cn1)C(=O)N[C@@H](CCCNC(=N)N)C(=O)N[C@@H](CS)C(=O)N[C@@H](CCCNC(=N)N)C(=O)O)C(C)C` [CD40L M1_18] (H-LPFVPYRSHVLKYGWFFPVQWSIFAVLPFQYLHRCR-OH; N-terminus and C-terminus assumed), in assay [1], the “inhibition of CD40L-induced CD86 expression (qualitative)” value (“inhibition … (qualitative)” below) is “concentration-dependent inhibition”. Besides, the IC50 in assay [1] (monomeric peptide, concentration-dependent) is less than 500 nM.

Regarding `CC[C@@H](C)[C@@H](NC(=O)[C@@H](Cc1ccccc1)NC(=O)[C@@H](C)NC(=O)[C@H](NC(=O)[C@@H](CC(C)C)NC(=O)[C@H]1CCCN1C(=O)[C@@H](Cc1ccccc1)NC(=O)[C@@H](CCC(N)=O)NC(=O)[C@@H](Cc1ccc(O)cc1)NC(=O)[C@@H](CC(C)C)NC(=O)[C@@H](Cc1c[nH]cn1)NC(=O)[C@@H](CCCNC(=N)N)NC(=O)[C@@H](CS)NC(=O)[C@H](N)CCCNC(=N)N)C(C)C)C(=O)N[C@H](CO)C(=O)N[C@H](Cc1c[nH]c2ccccc12)C(=O)N[C@H](CCC(N)=O)C(=O)N[C@@H](C(=O)N1CCC[C@@H]1C(=O)N[C@H](Cc1ccccc1)C(=O)N[C@H](Cc1ccccc1)C(=O)N[C@H](Cc1c[nH]c2ccccc12)C(=O)NCC(=O)N[C@H](Cc1ccc(O)cc1)C(=O)N[C@H](CCCCN)C(=O)N[C@H](CC(C)C)C(=O)N[C@@H](C(=O)N[C@H](Cc1c[nH]cn1)C(=O)N[C@H](CO)C(=O)N[C@H](CCCNC(=N)N)C(=O)N[C@H](Cc1ccc(O)cc1)C(=O)N1CCC[C@@H]1C(=O)N[C@@H](C(=O)N[C@H](Cc1ccccc1)C(=O)N1CCC[C@@H]1C(=O)N[C@H](CC(C)C)C(=O)O)C(C)C)C(C)C)C(C)C` [CD40L M1_18rd] (H-[dR][dC][dR][dH][dL][dY][dQ][dF][dP][dL][dV][dA][dF][dI][dS][dW][dQ][dV][dP][dF][dF][dW]G[dY][dK][dL][dV][dH][dS][dR][dY][dP][dV][dF][dP][dL]-OH; N-terminus and C-terminus assumed), the “inhibition … (qualitative)” value in assay [1] is on record as “enhanced inhibition”.

In the case of `CC[C@H](C)[C@H](NC(=O)[C@H](CCC(N)=O)NC(=O)[C@H](Cc1ccccc1)NC(=O)[C@H](Cc1ccccc1)NC(=O)[C@H](CCC(=O)O)NC(=O)[C@H](CCCNC(=N)N)NC(=O)CNC(=O)[C@H](C)NC(=O)[C@H](C)NC(=O)[C@@H](N)CC(=O)O)C(=O)N[C@@H](C)C(=O)NCC(=O)N[C@@H](CC(C)C)C(=O)N[C@@H](Cc1ccccc1)C(=O)N[C@@H](CO)C(=O)N[C@@H](Cc1ccccc1)C(=O)N[C@@H](CCCNC(=N)N)C(=O)N[C@@H](Cc1c[nH]cn1)C(=O)N[C@@H](Cc1c[nH]cn1)C(=O)N[C@@H](Cc1c[nH]c2ccccc12)C(=O)N[C@@H](Cc1c[nH]c2ccccc12)C(=O)N[C@@H](CCC(N)=O)C(=O)N[C@@H](C)C(=O)O` [CD40L M1_30s] (H-DAAGREFFQIAGLFSFRHHWWQA-OH; N-terminus and C-terminus assumed), in assay [1], the EC50 was more than 2000 nM.

On to `CC[C@H](C)[C@H](NC(=O)CNC(=O)CNC(=O)[C@H](CCCNC(=N)N)NC(=O)[C@H](CCC(N)=O)NC(=O)[C@@H](NC(=O)CNC(=O)[C@H](CO)NC(=O)[C@@H]1CCCN1C(=O)[C@@H](NC(=O)[C@H](Cc1ccccc1)NC(=O)[C@H](CC(C)C)NC(=O)[C@H](CO)NC(=O)[C@H](Cc1ccc(O)cc1)NC(=O)[C@H](Cc1ccccc1)NC(=O)[C@H](CCCNC(=N)N)NC(=O)[C@H](CC(N)=O)NC(=O)[C@H](CCCNC(=N)N)NC(=O)[C@@H](NC(=O)[C@H](Cc1c[nH]c2ccccc12)NC(=O)[C@H](CCCNC(=N)N)NC(=O)[C@@H]1CCCN1)C(C)C)C(C)C)C(C)C)C(=O)N[C@@H](Cc1c[nH]cn1)C(=O)N[C@@H](CC(C)C)C(=O)N[C@@H](Cc1c[nH]c2ccccc12)C(=O)N[C@@H](Cc1ccccc1)C(=O)N[C@@H](CO)C(=O)N[C@@H](CC(N)=O)C(=O)N[C@@H](Cc1c[nH]c2ccccc12)C(=O)N[C@H](C(=O)N[C@@H](CCCNC(=N)N)C(=O)O)C(C)C` [CD40L M1_50s] (H-PRWVRNRFYSLFVPSGVQRGGIHLWFSNWVR-OH; N-terminus and C-terminus assumed), for which the EC50 in assay [1] stood at 30 nM.

As for `CC[C@H](C)[C@H](NC(=O)[C@H](CC(C)C)NC(=O)[C@H](CCC(N)=O)NC(=O)[C@H](Cc1ccccc1)NC(=O)[C@H](Cc1ccc(O)cc1)NC(=O)[C@H](Cc1ccc(O)cc1)NC(=O)[C@H](CCCCN)NC(=O)[C@H](Cc1ccccc1)NC(=O)[C@H](CCCNC(=N)N)NC(=O)[C@H](CO)NC(=O)[C@H](Cc1ccc(O)cc1)NC(=O)[C@H](CCCNC(=N)N)NC(=O)[C@H](Cc1c[nH]c2ccccc12)NC(=O)[C@H](Cc1c[nH]cn1)NC(=O)[C@H](Cc1ccc(O)cc1)NC(=O)[C@H](CCC(N)=O)NC(=O)[C@@H](NC(=O)[C@@H](N)CO)[C@@H](C)CC)C(=O)N[C@@H](Cc1c[nH]c2ccccc12)C(=O)N[C@H](C(=O)N[C@@H](Cc1ccc(O)cc1)C(=O)N[C@@H](Cc1ccc(O)cc1)C(=O)N[C@@H](CO)C(=O)N[C@@H](Cc1c[nH]cn1)C(=O)N[C@H](C(=O)O)C(C)C)C(C)C` [CD40L M1_82s] (H-SIQYHWRYSRFKYYFQLIWVYYSHV-OH; N-terminus and C-terminus assumed), the EC50 on CD40L/CD40-Fc (PEGylated Cys-Ser derivative, read-out: EC50(PEGylated) CD40L/CD40-Fc/BAF617) stood at 120 nM.

`CC[C@H](C)[C@H](NC(=O)[C@@H](NC(=O)[C@H](CCCCN)NC(=O)[C@@H](NC(=O)[C@H](Cc1ccc(O)cc1)NC(=O)[C@H](CC(C)C)NC(=O)[C@@H](N)CC(C)C)C(C)C)C(C)C)C(=O)N[C@@H](CS)C(=O)N[C@@H](Cc1ccccc1)C(=O)N[C@@H](Cc1ccccc1)C(=O)N[C@@H](CS)C(=O)N[C@@H](CCSC)C(=O)N[C@@H](CC(C)C)C(=O)N[C@H](C(=O)N[C@@H](CCC(N)=O)C(=O)N[C@@H](Cc1ccc(O)cc1)C(=O)N[C@@H](CC(N)=O)C(=O)N[C@@H](CC(N)=O)C(=O)N[C@@H](Cc1ccccc1)C(=O)N[C@@H](CCC(N)=O)C(=O)N[C@H](C(=O)N[C@@H](Cc1ccc(O)cc1)C(=O)N[C@@H](CCCCN)C(=O)O)[C@@H](C)O)C(C)C` [CD40L M2_159] (H-LLYVKVICFFCMLVQYNNFQTYK-OH; N-terminus and C-terminus assumed): the EC50 at CD40L/CD40-Fc (unmodified (non-PEGylated) monomeric base peptide; read-out: EC50nmodified) CD40L/CD40-Fc/BAF617) worked out at 120 nM.

Consider `CC[C@H](C)[C@H](NC(=O)[C@H](CO)NC(=O)[C@H](Cc1ccccc1)NC(=O)[C@@H](NC(=O)[C@H](CC(N)=O)NC(=O)[C@H](CCCCN)NC(=O)[C@@H](NC(=O)[C@H](CO)NC(=O)[C@H](Cc1ccccc1)NC(=O)[C@@H]1CCCN1C(=O)[C@H](Cc1c[nH]cn1)NC(=O)COCCOCCNC(=O)[C@@H](N)CSSC[C@H](N)C(=O)NCCOCCOCC(=O)N[C@@H](Cc1c[nH]cn1)C(=O)N1CCC[C@H]1C(=O)N[C@@H](Cc1ccccc1)C(=O)N[C@@H](CO)C(=O)N[C@H](C(=O)N[C@@H](CCCCN)C(=O)N[C@@H](CC(N)=O)C(=O)N[C@H](C(=O)N[C@@H](Cc1ccccc1)C(=O)N[C@@H](CO)C(=O)N[C@H](C(=O)N[C@@H](Cc1c[nH]c2ccccc12)C(=O)N[C@@H](CC(N)=O)C(=O)N[C@@H](Cc1ccccc1)C(=O)N[C@@H](Cc1ccccc1)C(=O)N[C@@H](CO)C(=O)N[C@H](C(=O)N[C@@H](Cc1ccc(O)cc1)C(=O)O)C(C)C)[C@@H](C)CC)C(C)C)[C@@H](C)CC)[C@@H](C)CC)C(C)C)C(=O)N[C@@H](Cc1c[nH]c2ccccc12)C(=O)N[C@@H](CC(N)=O)C(=O)N[C@@H](Cc1ccccc1)C(=O)N[C@@H](Cc1ccccc1)C(=O)N[C@@H](CO)C(=O)N[C@H](C(=O)N[C@@H](Cc1ccc(O)cc1)C(=O)O)C(C)C` [Cys_M1_6S homodimer] (I: H-C[AEEA]HPFSIKNVFSIWNFFSVY-OH / II: H-C[AEEA]HPFSIKNVFSIWNFFSVY-OH; disulfide I:1-II:1; C-terminus assumed), for which, on CD40L/CD40-Fc (qualitative), the “inhibition of CD40L-CD40 interaction relative to monomeric peptide controls” value is recorded as “enhanced inhibition”. Also, in assay [1], the “inhibition … (qualitative)” value is given as “enhanced inhibition”.
